Where only a bound is given, the exact number is not on record here.

The record followed here is patent US9326973B2, “Hepatitis C virus inhibitors” (priority 2012, dated 2016).

In the assay the test system is HCV replicon, genotype-1a variant with glutamine 30 changed to glutamate in the NS5A protein. Nature of the assay: microbe, parasite or virus in culture. In kind it is cell-based, HCV genotype 1a. Particulars: HCV replicon genotype 1a Q30E (Q→E) variant; test compound titrated with an NS5A-targeting compound (BMS-790052 fixed at 200 nM); ranking of synergist activity. The method in brief:
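Synergy was assessed by combining several fixed amounts of an NS5A-targeting compound with a titration of the second compound of interest.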

Consider `C[C@@H]1CCCCN1C(=O)C(=O)N[C@H](c1nc(-c2ccc(-c3ccc(-c4c[nH]c([C@@H](NC(=O)C(=O)N5CCCC[C@H]5C)C(C)(C)C)n4)cc3)cc2)c[nH]1)C(C)(C)C` [Compound W-38], for which the “Fold-Synergistic 1a (Q30E)” value was above 100 fold.

On to `CC(C)(C)[C@H](NC(=O)C(=O)N(CCC#N)C1CC1)c1nc(-c2ccc(-c3ccc(-c4c[nH]c([C@@H](NC(=O)C(=O)N(CCC#N)C5CC5)C(C)(C)C)n4)cc3)cc2)c[nH]1` [Compound W-48], for which the “Fold-Synergistic 1a (Q30E)” value is recorded as above 100 fold.

With `CC(C)N(C(=O)C(=O)N[C@H](c1nc(-c2ccc(-c3ccc(-c4c[nH]c([C@@H](NC(=O)C(=O)N(C(C)C)C5CC5)C(C)(C)C)n4)cc3)cc2)c[nH]1)C(C)(C)C)C1CC1` [Compound W-49], the “Fold-Synergistic 1a (Q30E)” value was above 100 fold.

In the case of `CN(C(=O)C(=O)N[C@H](c1nc(-c2ccc(-c3ccc(-c4c[nH]c([C@@H](NC(=O)C(=O)N(C)C5CC5)C(C)(C)C)n4)cc3)cc2)c[nH]1)C(C)(C)C)C1CC1` [Compound W-50], the “Fold-Synergistic 1a (Q30E)” value is above 100 fold.

For `CC(C)[C@H](NC(=O)C(=O)N1CCC(F)(F)CC1)c1nc(-c2ccc(-c3ccc(-c4c[nH]c([C@@H](NC(=O)C(=O)N5CCC(F)(F)CC5)C(C)C)n4)cc3)cc2)c[nH]1` [Compound W-51], the “Fold-Synergistic 1a (Q30E)” value was above 100 fold.

For the molecule `CC(C)[C@H](NC(=O)C(=O)N1CCCCCC1)c1nc(-c2ccc(-c3ccc(-c4c[nH]c([C@@H](NC(=O)C(=O)N5CCCCCC5)C(C)C)n4)cc3)cc2)c[nH]1` [Compound W-52], the “Fold-Synergistic 1a (Q30E)” value is reported as above 100 fold.

Take `CC(C)[C@H](NC(=O)C(=O)N1CCC(C(F)(F)F)CC1)c1nc(-c2ccc(-c3ccc(-c4c[nH]c([C@@H](NC(=O)C(=O)N5CCC(C(F)(F)F)CC5)C(C)C)n4)cc3)cc2)c[nH]1` [Compound W-53]: the “Fold-Synergistic 1a (Q30E)” value is above 100 fold.

For `CC(C)[C@H](NC(=O)C(=O)N1C[C@@H](C)O[C@@H](C)C1)c1nc(-c2ccc(-c3ccc(-c4c[nH]c([C@@H](NC(=O)C(=O)N5C[C@@H](C)O[C@@H](C)C5)C(C)C)n4)cc3)cc2)c[nH]1` [Compound W-54], the “Fold-Synergistic 1a (Q30E)” value is above 100 fold.

Take `CC(C)[C@H](NC(=O)C(=O)N(C(C)C)C1CC1)c1nc(-c2ccc(-c3ccc(-c4c[nH]c([C@@H](NC(=O)C(=O)N(C(C)C)C5CC5)C(C)C)n4)cc3)cc2)c[nH]1` [Compound W-55]: the “Fold-Synergistic 1a (Q30E)” value was above 100 fold.

As for `CCN(CC(F)(F)F)C(=O)C(=O)N[C@H](c1nc(-c2ccc(-c3ccc(-c4c[nH]c([C@@H](NC(=O)C(=O)N(CC)CC(F)(F)F)C(C)C)n4)cc3)cc2)c[nH]1)C(C)C` [Compound W-56], the “Fold-Synergistic 1a (Q30E)” value was above 100 fold.

Turning to `CC1([C@H](NC(=O)C(=O)N2CCCCCC2)c2nc(-c3ccc(-c4ccc(-c5c[nH]c([C@@H](NC(=O)C(=O)N6CCCCCC6)C6(C)CC6)n5)cc4)cc3)c[nH]2)CC1` [Compound W-57], the “Fold-Synergistic 1a (Q30E)” value was above 100 fold.

Turning to `CC(C)N(C(=O)C(=O)N[C@H](c1nc(-c2ccc(-c3ccc(-c4c[nH]c([C@@H](NC(=O)C(=O)N(C(C)C)C5CC5)C5(C)CC5)n4)cc3)cc2)c[nH]1)C1(C)CC1)C1CC1` [Compound W-58], the “Fold-Synergistic 1a (Q30E)” value is recorded as above 100 fold.

For the molecule `CC1([C@H](NC(=O)C(=O)N2CCC(C(F)(F)F)CC2)c2nc(-c3ccc(-c4ccc(-c5c[nH]c([C@@H](NC(=O)C(=O)N6CCC(C(F)(F)F)CC6)C6(C)CC6)n5)cc4)cc3)c[nH]2)CC1` [Compound W-59], the “Fold-Synergistic 1a (Q30E)” value was above 100 fold.

Regarding `CC(C)(C)[C@H](NC(=O)C(=O)N1CCC(C(F)(F)F)CC1)c1nc(-c2ccc(-c3ccc(-c4c[nH]c([C@@H](NC(=O)C(=O)N5CCC(C(F)(F)F)CC5)C(C)(C)C)n4)cc3)cc2)c[nH]1` [Compound W-60], the “Fold-Synergistic 1a (Q30E)” value is above 100 fold.

As for `C[C@@H]1CN(C(=O)C(=O)N[C@H](c2nc(-c3ccc(-c4ccc(-c5c[nH]c([C@@H](NC(=O)C(=O)N6C[C@@H](C)O[C@@H](C)C6)C6(C)CC6)n5)cc4)cc3)c[nH]2)C2(C)CC2)C[C@H](C)O1` [Compound W-61], the “Fold-Synergistic 1a (Q30E)” value is given as above 100 fold.

Turning to `CC1([C@H](NC(=O)C2(N3CCC(F)(F)CC3)COC2)c2nc(-c3ccc(-c4ccc(-c5c[nH]c([C@@H](NC(=O)C6(N7CCC(F)(F)CC7)COC6)C6(C)CC6)n5)cc4)cc3)c[nH]2)CC1` [Compound W-62], the “Fold-Synergistic 1a (Q30E)” value was above 100 fold.

As for `CC(C)(C)[C@H](NC(=O)C1(N2CCC(F)(F)CC2)COC1)c1nc(-c2ccc(-c3ccc(-c4c[nH]c([C@@H](NC(=O)C5(N6CCC(F)(F)CC6)COC5)C(C)(C)C)n4)cc3)cc2)c[nH]1` [Compound W-63], the “Fold-Synergistic 1a (Q30E)” value is recorded as above 100 fold.

Turning to `CC(C)[C@H](NC(=O)C1(N2CCC(F)(F)CC2)COC1)c1nc(-c2ccc(-c3ccc(-c4c[nH]c([C@@H](NC(=O)C5(N6CCC(F)(F)CC6)COC5)C(C)C)n4)cc3)cc2)c[nH]1` [Compound W-64], the “Fold-Synergistic 1a (Q30E)” value was above 100 fold.

`CC(C)[C@H](NC(=O)C(=O)N(CC(F)(F)F)C(C)C)c1nc(-c2ccc(-c3ccc(-c4c[nH]c([C@@H](NC(=O)C(=O)N(CC(F)(F)F)C(C)C)C(C)C)n4)cc3)cc2)c[nH]1` [Compound W-65]: the “Fold-Synergistic 1a (Q30E)” value is reported as above 100 fold.

As to `CC(C)N(CC(F)(F)F)C(=O)C(=O)N[C@H](c1nc(-c2ccc(-c3ccc(-c4c[nH]c([C@@H](NC(=O)C(=O)N(CC(F)(F)F)C(C)C)C(C)(C)C)n4)cc3)cc2)c[nH]1)C(C)(C)C` [Compound W-66], the “Fold-Synergistic 1a (Q30E)” value is above 100 fold.

With `CC(C)(C)OC(=O)N1[C@@H]2CC2C[C@H]1C(=O)N[C@H](c1nc(-c2ccc(-c3ccc(-c4c[nH]c([C@@H](NC(=O)[C@@H]5CC6C[C@H]6N5C(=O)OC(C)(C)C)C(C)(C)C)n4)cc3)cc2)c[nH]1)C(C)(C)C` (some centres unmarked) [Compound W-67], the “Fold-Synergistic 1a (Q30E)” value was above 100 fold.

Turning to `C[C@H]1C[C@@H](C(=O)N[C@H](c2nc(-c3ccc(-c4ccc(-c5c[nH]c([C@@H](NC(=O)[C@@H]6C[C@H](C)CN6C(=O)OC(C)(C)C)C(C)(C)C)n5)cc4)cc3)c[nH]2)C(C)(C)C)N(C(=O)OC(C)(C)C)C1` [Compound W-68], the “Fold-Synergistic 1a (Q30E)” value is listed as above 100 fold.

As to `C[C@H]1CC[C@@H](C(=O)N[C@H](c2nc(-c3ccc(-c4ccc(-c5c[nH]c([C@@H](NC(=O)[C@@H]6CC[C@H](C)N6C(=O)OC(C)(C)C)C(C)(C)C)n5)cc4)cc3)c[nH]2)C(C)(C)C)N1C(=O)OC(C)(C)C` [Compound W-69], the “Fold-Synergistic 1a (Q30E)” value is listed as above 100 fold.

`C[C@H]1CC[C@@H](C(=O)N[C@H](c2nc(-c3ccc(-c4ccc(-c5c[nH]c([C@@H](NC(=O)[C@@H]6CC[C@H](C)N6C(=O)OC(C)(C)C)C6(C)CC6)n5)cc4)cc3)c[nH]2)C2(C)CC2)N1C(=O)OC(C)(C)C` [Compound W-72]: the “Fold-Synergistic 1a (Q30E)” value was above 100 fold.

Turning to `CC(C)[C@H](NC(=O)[C@@H]1C2C[C@@H]2CN1C(=O)OC(C)(C)C)c1nc(-c2ccc(-c3ccc(-c4c[nH]c([C@@H](NC(=O)[C@@H]5C6C[C@@H]6CN5C(=O)OC(C)(C)C)C(C)C)n4)cc3)cc2)c[nH]1` (some centres unmarked) [Compound W-74], the “Fold-Synergistic 1a (Q30E)” value is above 100 fold.

Consider `CC(C)(C)OC(=O)N1C[C@H]2CC2[C@H]1C(=O)N[C@H](c1nc(-c2ccc(-c3ccc(-c4c[nH]c([C@@H](NC(=O)[C@@H]5C6C[C@@H]6CN5C(=O)OC(C)(C)C)C5(C)CC5)n4)cc3)cc2)c[nH]1)C1(C)CC1` (some centres unmarked) [Compound W-75], for which the “Fold-Synergistic 1a (Q30E)” value is above 100 fold.

As for `CC(C)(C)OC(=O)N1C[C@@H](F)C[C@H]1C(=O)N[C@H](c1nc(-c2ccc(-c3ccc(-c4c[nH]c([C@@H](NC(=O)[C@@H]5C[C@H](F)CN5C(=O)OC(C)(C)C)C(C)(C)C)n4)cc3)cc2)c[nH]1)C(C)(C)C` [Compound W-83], the “Fold-Synergistic 1a (Q30E)” value is above 100 fold.

`CC(C)(C)OC(=O)N1CCC[C@H]1C(=O)N[C@H](c1nc(-c2ccc(-c3ccc(-c4c[nH]c([C@@H](NC(=O)[C@@H]5CCCN5C(=O)OC(C)(C)C)C(C)(C)C)n4)cc3)cc2)c[nH]1)C(C)(C)C` [Compound W-86]: the “Fold-Synergistic 1a (Q30E)” value is recorded as above 100 fold.

Turning to `CC(C)(C)OC(=O)N1CCC[C@@H]1C(=O)N[C@H](c1nc(-c2ccc(-c3ccc(-c4c[nH]c([C@@H](NC(=O)[C@H]5CCCN5C(=O)OC(C)(C)C)C(C)(C)C)n4)cc3)cc2)c[nH]1)C(C)(C)C` [Compound W-87], the “Fold-Synergistic 1a (Q30E)” value is on record as above 100 fold.

On to `CC(C)(C)OC(=O)N1CC(F)(F)C[C@H]1C(=O)N[C@H](c1nc(-c2ccc(-c3ccc(-c4c[nH]c([C@@H](NC(=O)[C@@H]5CC(F)(F)CN5C(=O)OC(C)(C)C)C(C)(C)C)n4)cc3)cc2)c[nH]1)C(C)(C)C` [Compound W-88], for which the “Fold-Synergistic 1a (Q30E)” value is above 100 fold.

With `C=C1C[C@@H](C(=O)N[C@H](c2nc(-c3ccc(-c4ccc(-c5c[nH]c([C@@H](NC(=O)[C@@H]6CC(=C)CN6C(=O)OC(C)(C)C)C(C)C)n5)cc4)cc3)c[nH]2)C(C)C)N(C(=O)OC(C)(C)C)C1` [Compound W-89], the “Fold-Synergistic 1a (Q30E)” value is on record as above 100 fold.

In the case of `C=C1C[C@@H](C(=O)N[C@H](c2nc(-c3ccc(-c4ccc(-c5c[nH]c([C@@H](NC(=O)[C@@H]6CC(=C)CN6C(=O)OC(C)(C)C)C(C)(C)C)n5)cc4)cc3)c[nH]2)C(C)(C)C)N(C(=O)OC(C)(C)C)C1` [Compound W-91], the “Fold-Synergistic 1a (Q30E)” value is given as above 100 fold.

As to `CC(C)(C)OC(=O)N1CC2(CC2)C[C@H]1C(=O)N[C@H](c1nc(-c2ccc(-c3ccc(-c4c[nH]c([C@@H](NC(=O)[C@@H]5CC6(CC6)CN5C(=O)OC(C)(C)C)C(C)(C)C)n4)cc3)cc2)c[nH]1)C(C)(C)C` [Compound W-94], the “Fold-Synergistic 1a (Q30E)” value is recorded as above 100 fold.

With `CC(C)(C)OC(=O)N1C[C@H](O)C[C@H]1C(=O)N[C@H](c1nc(-c2ccc(-c3ccc(-c4c[nH]c([C@@H](NC(=O)[C@@H]5C[C@@H](O)CN5C(=O)OC(C)(C)C)C5(C)CC5)n4)cc3)cc2)c[nH]1)C1(C)CC1` [Compound W-95], the “Fold-Synergistic 1a (Q30E)” value is reported as above 100 fold.

With `CC(C)(C)OC(=O)N1C[C@H](O)C[C@H]1C(=O)N[C@H](c1nc(-c2ccc(-c3ccc(-c4c[nH]c([C@@H](NC(=O)[C@@H]5C[C@@H](O)CN5C(=O)OC(C)(C)C)C(C)(C)C)n4)cc3)cc2)c[nH]1)C(C)(C)C` [Compound W-96], the “Fold-Synergistic 1a (Q30E)” value is given as above 100 fold.
